One experiment relates to UACC-257. As to the kind of experiment: In vitro inhibitory concentration against melanoma cell line UACC-257. The settings on record: Homo sapiens. The format is functional, cell-based.
The subject of a further experiment is EKVX. As to the kind of experiment: In vitro inhibitory concentration against non small cell lung EKVX cell line. The format is functional, cell-based. Particulars: Homo sapiens.
The subject of a further experiment is A498. The experiment in a line: In vitro inhibitory concentration against renal cancer cell line A498. The class given is functional, cell-based. Particulars: Homo sapiens.
Experiment [1] is described as follows: Average inhibitory concentration against 60 human cell lines was reported. The class given is functional.
Another experiment relates to T47D. The experiment in a line: In vitro inhibitory concentration against breast cancer cell line T-47D. The settings on record: Homo sapiens. The class given is functional, cell-based.
The subject of a further experiment is Hs-578T. The experiment in a line: In vitro inhibitory concentration against breast cancer cell line Hs 578.T. The format is functional, cell-based. Particulars: Homo sapiens.
The test system of the next experiment is NCI-H322M. As to the kind of experiment: In vitro inhibitory concentration against non small cell lung NCI-H322M cell line. The class given is functional, cell-based. The settings on record: Homo sapiens.
Another experiment relates to HOP-92. As to the kind of experiment: In vitro inhibitory concentration against non small cell lung HOP-92 cell line. The class given is functional, cell-based. The settings on record: Homo sapiens.
A further experiment relates to NCI-H226. As to the kind of experiment: In vitro inhibitory concentration against non small cell lung NCI-H226 cell line. Particulars: Homo sapiens. The format is functional, cell-based.
The next experiment concerns K562. The experiment in a line: In vitro inhibitory concentration against leukemia cell line K-562. The settings on record: Homo sapiens. The format is functional, cell-based.
For a further experiment, the system named is PC-3. As to the kind of experiment: In vitro inhibitory concentration against prostate cancer cell line PC-3. The settings on record: Homo sapiens. The class given is functional, cell-based.
A further experiment relates to CAKI-1. The experiment in a line: In vitro inhibitory concentration against renal cancer cell line […]. The settings on record: Homo sapiens. The class given is functional, cell-based.
Another experiment concerns U-251. The experiment in a line: In vitro inhibitory concentration against CNS cancer cell line U251. The settings on record: Homo sapiens. The format is functional, cell-based.
The subject of the next experiment is UO-31. The experiment in a line: In vitro inhibitory concentration against renal cancer cell line UO-31. The format is functional, cell-based. Particulars: Homo sapiens.
For a further experiment, the system named is IGROV-1. The experiment in a line: In vitro inhibitory concentration against ovarian cancer cell line IGROV1. The settings on record: Homo sapiens. The class given is functional, cell-based.
A further experiment concerns SR. As to the kind of experiment: In vitro inhibitory concentration against leukemia cell line SR. The class given is functional, cell-based. The settings on record: Homo sapiens.

In the case of `Cc1c2cccc-2ccc2c1[nH]c1ccc(Br)cc12`, the IC50 in the experiment on UACC-257 is 24000 nM; in the experiment with EKVX, 1780 nM; with A498 it was 21900 nM; in experiment [1], 5370 nM; in the experiment on T47D, 1700 nM.

As for `Cc1c2cccc-2c(OCCO)cc2c1[nH]c1ccccc12`, the IC50 with EKVX turned out to be 1000 nM; with A498, 13800 nM; in the experiment with Hs-578T it was 930 nM; in experiment [1], 2510 nM; with NCI-H322M it was 17000 nM.

For `CC(=O)OCCOc1cc2c([nH]c3ccccc32)c(C)c2cccc1-2`, the IC50 in the experiment with HOP-92 was determined as 1380 nM; with NCI-H226 it was 11200 nM; in experiment [1] it was 2750 nM; in the experiment on K562, 510 nM; with NCI-H322M, 14500 nM.

With `Cc1c2cccc-2c(N(C)C)cc2c1[nH]c1ccccc12`, the IC50 with A498 was 20900 nM; with PC-3, 1410 nM; in the experiment on HOP-92, 560 nM; in experiment [1], 3980 nM; with CAKI-1, 17400 nM.

For `Cc1c2cccc-2ccc2c1[nH]c1ccccc12`, the IC50 in the experiment with A498 worked out at 11700 nM; in experiment [1], 2400 nM; with U-251, 1480 nM; in the experiment with CAKI-1, 6600 nM; in the experiment on UO-31, 1620 nM.

Turning to `CC(=O)Oc1ccc2[nH]c3c(C)c4cccc-4ccc3c2c1`, the IC50 is 1580 nM in the experiment with IGROV-1; 4570 nM in the experiment on SR; 1380 nM with NCI-H226; 2190 nM in experiment [1]; 3800 nM in the experiment on K562.

(Values after ChEMBL document CHEMBL1133884, “Microwave-assisted [6+4]-cycloaddition of fulvenes and alpha-pyrones to azulene-indoles: facile syntheses of novel antineoplastic agents” (Bioorg Med Chem Lett, 2001).)
